# Experimental data taken from patent US20100016335A1, “NOVEL AMINOPYRIDINE DERIVATIVES HAVING AURORA A SELECTIVE INHIBITORY ACTION” (priority 2006, published 2010).
# Where a name gives a salt, the structure may show the parent alone. Read-outs that look alike come from different tables or passages of the source.
# Legend:
# human Aurora A = molecular target: T1, human Aurora A (Homo sapiens, UniProt O14965); test: Aurora A inhibitory activity (IMAP fluorescence polarization phosphorylation assay); format: biochemical; conditions: 20 μM ATP, 30° C., 120 minutes
# T1 construct: His (N); made in house; host or cells: Escherichia coli BL21-CodonPlus(DE3)-RIL
# T1 sequence (O14965 1-403): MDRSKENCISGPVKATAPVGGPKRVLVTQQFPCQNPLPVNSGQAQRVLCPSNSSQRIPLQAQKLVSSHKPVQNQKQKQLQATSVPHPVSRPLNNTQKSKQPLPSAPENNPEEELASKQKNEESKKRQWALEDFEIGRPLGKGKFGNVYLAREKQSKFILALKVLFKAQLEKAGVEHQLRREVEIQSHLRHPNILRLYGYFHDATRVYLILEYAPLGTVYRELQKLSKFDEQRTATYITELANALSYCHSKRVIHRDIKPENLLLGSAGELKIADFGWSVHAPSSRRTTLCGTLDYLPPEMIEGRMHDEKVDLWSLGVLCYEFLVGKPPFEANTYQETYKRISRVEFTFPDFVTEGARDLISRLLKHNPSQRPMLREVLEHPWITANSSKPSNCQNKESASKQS
# Source text: cDNA of N-terminal His-tagged human Aurora A was integrated into an expression vector, which was then highly expressed in Escherichia coli BL21-CodonPlus(DE3)-RIL cells. The Escherichia coli was harvested and lysed, and then the His-tagged human Aurora A protein was applied onto a nickel chelate column and eluted from the column with imidazole. The active fractions were desalted with a desalting column to give a purified enzyme.
# For the phosphorylation reaction, the method by Upstate, Inc. [Kinase Profiler™ Assay Protocols] was referred to, and phosphorylation of the substrate was detected using IMAP® technology (Molecular Devices, Co. Ltd.) (Gaudet E W. et. al, J. Biomol. Screen, 8, 164-175 (2003)). Concretely, the phosphorylation reaction and the detection were carried out as follows:
# The phosphorylation reaction was conducted using 384 well plate, and the reaction volume was 10 μl/well. The reaction buffer is comprised of 50 mM Tris-chloride buffer (pH 7.4), 15 mM magnesium acetate, and 0.2 mM ethylenediamine-N,N,N′,N′-tetraacetic acid (EDTA). Thereto, the purified Aurora A protein, 100 nM of the peptide substrate, and 20 μM of adenosine 5′-triphosphate (ATP) were added, and then the reaction was carried out at 30° C. for 120 minutes.
# Thereafter, in order to terminate and detect the reaction, 30 μl of the IMAP (registered trademark) binding reagent (IMAP Progressive Binding Reagent, R7284) that had been diluted (1:400) in the 1×IMAP binding buffer A (IMAP Progressive Binding Buffer A, 5× stock, R7282) was added to each well. The solution stood still for 60 minutes in the dark, and then fluorescence polarization was measured using a high-end microplate reader (excitation wavelength: 485 nm; emission wavelength: 520 nm).
# (§1) The compound to be tested was added to the reaction system such that a dilution series of the compound in dimethylsulfoxide (DMSO) was prepared, and then 0.5 μL of this solution was added for the testing to each well. Each control well was provided by adding 0.5 μL of DMSO to the well in place of the DMSO solution containing the compound to be tested.
# [1] = molecular target: T2, GST-tagged human Aurora B(AurB)/His-tagged human INCENP complex proteins (Homo sapiens, UniProt Q96GD4); test: Aurora B inhibitory activity (Method A, IMAP assay kit); format: biochemical; conditions: 40 μM ATP, 25° C., 45 minutes
# T2 construct: GST; purchased Carna Biosciences, Inc
# Method: An assay development kit for IMAP (registered trademark) (Aurora B), purchased from Carna Biosciences, Inc., was used for phosphorylation reaction, and the phosphorylation of a substrate was detected using the IMAP technology. […] Using the same, the phosphorylation reaction was conducted in accordance with a partially revised protocol attached to the kit, and then the phosphorylation of the substrate was detected using the IMAP technology.
# For the phosphorylation reaction, 384 well plate was used, and the reaction volume was 10 μl/well. The composition of the reaction buffer (assay buffer) is comprised of 20 mM of HEPES buffer (pH 7.4), 0.01% Tween-20, and 2 mM of dithiothreitol (DTT). Thereto, AurB/INCENP complex protein, 100 nM of the substrate, and 40 μM of ATP, and 1 mM of magnesium salt were added, and then the reaction was conducted at 25° C. for 45 minutes. Thereafter, in order to terminate and detect the reaction, 30 μl of the IMAP (registered trademark) binding reagent (IMAP Progressive Binding Reagent, R7284) that had been diluted (1:400) in the 1× IMAP binding buffer A (IMAP Progressive Binding Buffer A, 5× stock, R7282) was added to each well.
# as §1, with “DMSO” for “dimethylsulfoxide (DMSO)”
# [2] = system: Human cervical cancer cells (HeLa S3); test: Cell growth inhibitory effect, WST-8 method; format: cell-based; conditions: HeLa S3, three days incubation, read-out: Cell growth inhibitory effect (HeLaS3) (IC50)
# Method: Fetal calf serum (FCS) was purchased from Moregate Biotech, and DMEM medium was purchased from Invitrogen Corp. WST-8 was purchased from Kishida Chemical Co., Ltd.
# (§2) Human cervical cancer cells (HeLa S3) were obtained from the American Type Culture Collection (ATCC).
# Cells were suspended in a DMEM medium containing 10% FCS, and the cell suspension was dispensed to a 96-well plastic plate at a rate of 750 cells/100 microliters per well. The plate was incubated overnight in 5% CO2-95% air at 37° C. A drug was subjected to graded dilution in dimethylsulfoxide and further diluted with a DMEM medium containing 10% FCS. Then, the dilution was dispensed to the plate on which cells had been disseminated in advance, at a rate of 100 microliters per well. The plate was incubated for further three days in 5% CO2-95% air at 37° C. Cell growth after incubation was measured by the WST-8 method (H. Tominaga, et al., Anal. Commun., 36, 47-50 (1999)). Here, the WST-8 method refers to a method in which 20 microliters of a WST-8 reagent solution is added to each well, incubation is conducted at 37° C. for 60 minutes, the plate is stirred, and the amount of formazan produced is measured by a […] method to determine the inhibitory rate of the drug.
# [3] = system: Human cervical cancer cells (HeLa S3); test: Effect by combined use of drugs in cells (docetaxel), WST-8 method; format: cell-based; conditions: HeLa S3, three days; for inhibition at 1 µM: compound 1.0 μM alone
# Method: Fetal calf serum (FCS) was purchased from Moregate Biotech, DMEM medium from Invitrogen Corp., docetaxel (tradename: Taxere) from Sigma-Aldrich, Inc., and WST-8 from Kishida Chemical Co., Ltd.
# as §2
# Cells were suspended in a DMEM medium containing 10% FCS, and the cell suspension was dispensed to two 96-well plastic plates at a rate of 750 cells/100 microliters per well. The plates were incubated overnight in 5% CO2-95% air at 37° C. A drug was subjected to graded dilution in dimethylsulfoxide and further diluted with DMSO or with a DMEM medium containing 10% FCS and also containing 0.6 nM docetaxel. Then, the dilutions were each dispensed to one of the plates on which cells had been disseminated in advance, at a rate of 100 microliters per well. The final concentration of docetaxel at this stage was 0.3 nM. Also, the concentrations in the case of sole administration of the compound according to the invention were 0.003, 0.01, 0.03, 0.1, 0.3, 1, 3 and 10 μM. The plates were incubated for further three days in 5% CO2-95% air at 37° C. Cell growth after incubation was measured by the WST-8 method (H. Tominaga, et al., Anal. Commun., 36, 47-50 (1999)). Here, the WST-8 method refers to a method in which 20 microliters of a WST-8 reagent solution is added to each well, incubation is conducted at 37° C. for 60 minutes, the plate is stirred, and the amount of formazan produced is measured by a colorimetric method to determine the inhibitory rate of the drug. The growth inhibitory effects of docetaxel and of the compound according to the invention were determined, with the value obtained in sole treatment of DMSO being defined as 0%.
# [4] = Homo sapiens, HeLa S3, 72 h, compound 0.1 μM alone, read-out: Cell growth inhibitory effect by sole administration of the compound of Example (%)
# [5] = Homo sapiens, HeLa S3, 72 h, compound 0.3 μM alone, read-out: Cell growth inhibitory effect by sole administration of the compound of Example (%)
# [6] = compound 0.1 μM + docetaxel 0.3 nM
# [7] = compound 0.3 μM + docetaxel 0.3 nM
# [8] = Homo sapiens, HeLa S3, 72 h, read-out: Cell growth inhibitory effect by sole administration of the compound of Example (%)
# [9] = compound 1.0 μM + docetaxel 0.3 nM
# T2 sequence (Q96GD4 whole entry): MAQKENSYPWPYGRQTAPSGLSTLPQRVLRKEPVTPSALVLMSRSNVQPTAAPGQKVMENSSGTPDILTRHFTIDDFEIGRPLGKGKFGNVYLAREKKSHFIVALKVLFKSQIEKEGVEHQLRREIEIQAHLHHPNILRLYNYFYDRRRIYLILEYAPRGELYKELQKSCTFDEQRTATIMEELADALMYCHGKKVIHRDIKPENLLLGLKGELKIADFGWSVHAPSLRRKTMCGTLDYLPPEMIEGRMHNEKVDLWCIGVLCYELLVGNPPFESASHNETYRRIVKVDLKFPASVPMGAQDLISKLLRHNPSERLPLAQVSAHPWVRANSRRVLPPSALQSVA
# T2 sequence (Q9NQS7 803-916 partner limits assumed): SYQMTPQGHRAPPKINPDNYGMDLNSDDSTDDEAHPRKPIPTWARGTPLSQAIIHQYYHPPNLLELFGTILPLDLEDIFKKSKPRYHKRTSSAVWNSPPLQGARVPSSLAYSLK
Compound,IC50 (human Aurora A) [nM],IC50 [1] [nM],"IC50 ([2]; Homo sapiens, 72 h) [nM]",IC50 [2] [nM],"inhibition at 0.1 µM [3, 4] [%]","inhibition at 0.3 µM [3, 5] [%]","Cell growth inhibitory effect by combined administration of docetaxel and the compound of Example (%) [3, 6] [%]","Cell growth inhibitory effect by combined administration of docetaxel and the compound of Example (%) [3, 7] [%]",Cell growth inhibitory effect by sole administration of the compound of Example (%) ([3]; compound 0.1 μM alone),Cell growth inhibitory effect by sole administration of the compound of Example (%) ([3]; compound 0.3 μM alone),"inhibition at 1 µM [3, 8] [%]","Cell growth inhibitory effect by combined administration of docetaxel and the compound of Example (%) [3, 9] [%]","inhibition at 3 µM ([3]; Homo sapiens, HeLa S3, 72 h, compound 3.0 μM alone, read-out: Cell growth inhibitory effect by sole administration of the compound of Example (%)) [%]",Cell growth inhibitory effect by combined administration of docetaxel and the compound of Example (%) ([3]; compound 3.0 μM + docetaxel 0.3 nM),"inhibition at 0.3 µM ([3]; Homo sapiens, 72 h, compound 0.3 μM alone, read-out: Cell growth inhibitory effect by sole administration of the compound of Example (%)) [%]"
"O=c1[nH]nc([C@]2(Cc3cccc(Nc4cc[nH]n4)n3)CC[C@@H](Oc3cccc(Cl)c3F)CC2)o1 [Example 23, 5-(trans-4-(3-chloro-2-fluorophenoxy)-1-((6-(1H-pyrazol-3-ylamino)pyridin-2-yl)methyl)cyclohexyl)-1,3,4-oxadiazol-2(3H)-one]",0.39,490,760,–,3.7,36,71.5,87.4,–,–,–,–,–,–,–
"Cl.O=C(O)[C@]1(Cc2cccc(Nc3nccs3)n2)CC[C@@H](Oc2cccc(F)c2F)CC1 [Example 3, trans-4-(2,3-difluorophenoxy)-1-((6-(1,3-thiazol-2-ylamino)pyridin-2-yl)methyl)cyclohexanecarboxylic acid hydrochloride]",0.12,59,3950,–,–,5.4,–,74.1,–,–,26.9,90.4,–,–,–
"O=C(O)[C@]1(Cc2cccc(Nc3cc[nH]n3)n2)CC[C@@H](Oc2cccc(C(F)(F)F)c2F)CC1 [Example 9, trans-4-(2-fluoro-3-(trifluoromethyl)phenoxy)-1-((6-(1H-pyrazol-3-ylamino)pyridin-2-yl)methyl)cyclohexanecarboxylic acid trifluoroacetate]",0.16,190,2210,–,–,–,–,–,–,–,37.1,91.8,59,95.0,–
"Cl.O=C(O)[C@]1(Cc2cccc(Nc3nccs3)n2)CC[C@@H](Oc2cccc(Cl)c2F)CC1 [Example 1, trans-4-(3-chloro-2-fluorophenoxy)-1-((6-(1,3-thiazol-2-ylamino)pyridin-2-yl)methyl)cyclohexanecarboxylic acid hydrochloride]",–,–,1970,–,–,–,–,84.7,–,–,–,–,–,–,4.4

# Now from value to compound, other results behind:
IC50 (human Aurora A) [nM],IC50 [1] [nM],"IC50 ([2]; Homo sapiens, 72 h) [nM]",IC50 [2] [nM],Compound,"inhibition at 0.1 µM [3, 4] [%]","inhibition at 0.3 µM [3, 5] [%]","Cell growth inhibitory effect by combined administration of docetaxel and the compound of Example (%) [3, 6] [%]","Cell growth inhibitory effect by combined administration of docetaxel and the compound of Example (%) [3, 7] [%]",Cell growth inhibitory effect by sole administration of the compound of Example (%) ([3]; compound 0.1 μM alone),Cell growth inhibitory effect by sole administration of the compound of Example (%) ([3]; compound 0.3 μM alone),"inhibition at 1 µM [3, 8] [%]","Cell growth inhibitory effect by combined administration of docetaxel and the compound of Example (%) [3, 9] [%]","inhibition at 3 µM ([3]; Homo sapiens, HeLa S3, 72 h, compound 3.0 μM alone, read-out: Cell growth inhibitory effect by sole administration of the compound of Example (%)) [%]",Cell growth inhibitory effect by combined administration of docetaxel and the compound of Example (%) ([3]; compound 3.0 μM + docetaxel 0.3 nM),"inhibition at 0.3 µM ([3]; Homo sapiens, 72 h, compound 0.3 μM alone, read-out: Cell growth inhibitory effect by sole administration of the compound of Example (%)) [%]"
0.19,670,–,670,"5-(trans-4-(3-chloro-2-fluorophenoxy)-1-((6-(1H-pyrazol-3-ylamino)pyrazin-2-yl)methyl)cyclohexyl)-1,3,4-oxadiazol-2(3H)-one [Example 29]",–,–,79.0,92.9,11.3,39.9,–,–,–,–,–
0.08,39,340,–,"O=C(O)[C@]1(Cc2cccc(Nc3nccs3)n2)CC[C@@H](Sc2cccc(Cl)c2Cl)CC1 [Example 30, trans-4-((2,3-dichlorophenyl)thio)-1-((6-(1,3-thiazol-2-ylamino)pyridin-2-yl)methyl)cyclohexanecarboxylic acid trifluoroacetate]",28.3,53.4,81.2,92.0,–,–,–,–,–,–,–
1.4,800,3300,–,"Cn1nc([C@]2(Cc3cccc(Nc4cc[nH]n4)n3)CC[C@@H](Oc3cccc(Cl)c3F)CC2)oc1=O [Example 26, 5-(trans-4-(3-chloro-2-fluorophenoxy)-1-((6-(1H-pyrazol-3-ylamino)pyridin-2-yl)methyl)cyclohexyl)-3-methyl-1,3,4-oxadiazol-2(3H)-one]",–,11.8,–,67.3,–,–,18.2,88.5,–,–,–
